In patent US10919885B2, “Compounds and uses thereof” (Yumanity Therapeutics, Inc., priority 2018, dated 2021):

biological target: human SCD1 (Homo sapiens (Human), UniProt O00767); assay: Yeast growth assay, strain expressing human SCD1 as the sole desaturase (reduced growth as surrogate for SCD inhibition); assay type: cell-based; conditions: yeast with OLE1 deleted expressing human SCD1 from a plasmid; growth read as OD600 after 40 h at 30° C.; top drug concentration 33.3 μM
Procedure: (§1) Strains expressing SCD1 or SCD5 as the sole desaturase, the human SCD1 and SCD5 genes were used to evaluate inhibition of SCD1/SCD5 using reduced growth as a surrogate for SCD inhibition. These yeast strains express human SCD1 or SCD5 from a plasmid harbored in a strain in which the yeast OLE1 gene is deleted.
(§2) All compound profiling experiments were performed using the same basic protocol. Yeast were cultured using standard techniques in complete synthetic media lacking uracil and containing yeast nitrogen base supplemented with 2% (w/v) glucose (SD-Ura) Starter cultures were inoculated in 3 mL SD-Ura media containing 0.01% tween and 0.2 mM palmitoleic and oleic acid. Cultures were incubated overnight in a 30° C. shaker incubator (225 rpm). Saturated morning cultures were centrifuged, washed in SD-Ura media lacking TWEEN-20 and fatty acids, and then diluted 1:20 in fresh SD-Ura media also lacking TWEEN-20 and fatty acids.
(§3) Compound administration was performed in two separate steps. First, 15 μL of SD-Ura was dispensed into clear 384-well assay plates using a MULTIDROP™ Combi reagent dispenser. […] The cultures described above were centrifuged and washed with media lacking TWEEN-20 or oleic and palmitoleic acids.
(§4) After yeast delivery, assay plates were incubated under humidified conditions at 30° C. for 40 h. Yeast growth was monitored by reading the OD600 of each well using a microplate reader (Perkin Elmer EnVision™).

human SCD1, sequence (O00767 whole entry): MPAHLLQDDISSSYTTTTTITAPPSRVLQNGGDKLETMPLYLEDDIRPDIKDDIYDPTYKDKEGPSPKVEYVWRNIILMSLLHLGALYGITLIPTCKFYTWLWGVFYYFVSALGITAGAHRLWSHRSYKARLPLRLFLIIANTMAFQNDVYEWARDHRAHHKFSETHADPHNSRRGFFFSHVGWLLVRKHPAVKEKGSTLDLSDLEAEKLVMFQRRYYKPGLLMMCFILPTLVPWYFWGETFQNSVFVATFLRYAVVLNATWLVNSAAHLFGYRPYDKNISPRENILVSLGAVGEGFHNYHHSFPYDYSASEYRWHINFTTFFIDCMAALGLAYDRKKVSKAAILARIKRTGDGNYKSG

Row | IC50 | Compound
1 | > 45 µM | O=C(c1cc(-c2ccccc2)on1)N1CCN(c2ccc(F)cc2)CC1 [Compound 283]
2 | > 45 µM | Cn1nc(Cc2ccc(Cl)c(Cl)c2)cc1NC(=O)c1cc(-c2ccco2)on1 [Compound 27]
3 | > 45 µM | N#Cc1ccc2c(C(=O)N3CCC[C@H]3c3ccccc3)noc2c1 [Compound 456]
4 | > 45 µM | CC(C)c1cc(C(=O)Nc2cc3ccccn3n2)no1 [Compound 176]
5 | > 45 µM | Cc1ncc(-c2cc(C(=O)Nc3cnn(Cc4ccccc4)c3)no2)s1 [Compound 133]
6 | > 45 µM | O=C(c1cc(-c2ccc3c(c2)OCO3)on1)N1CCCC1C1CC1 (centres unmarked) [Compound 407]
7 | > 45 µM | COc1ccc(C2CCCN2C(=O)c2cc(-c3ccc4c(c3)OCO4)on2)c(F)c1 (centres unmarked) [Compound 452]
8 | > 45 µM | CC(C)c1cc(C(=O)N2CCC(c3cccc(F)c3)C2)no1 (centres unmarked) [Compound 350]
9 | > 45 µM | CC(C)c1cc(C(=O)N2CC(Cc3ccccc3)C2)no1 [Compound 251]
10 | 0.03 µM | CC(C)c1cc(C(=O)Nc2cnn(Cc3cccc(F)c3)c2)no1 [Compound 60, N-(1-(3-fluorobenzyl)-1H-pyrazol-4-yl)-5-isopropylisoxazole-3-carboxamide]
11 | 0.01 µM | O=C(Nc1cnn(Cc2ccccc2)c1)c1noc2c1CCCC2 [Compound 156, N-(1-benzyl-1H-pyrazol-4-yl)-4,5,6,7-tetrahydrobenzo[d]isoxazole-3-carboxamide]
12 | > 45 µM | C[C@H]1CCCN1C(=O)c1cc(-c2ccc3c(c2)OCO3)on1 [Compound 369]
13 | 40.2 µM | COc1ccc(-c2cc(C(=O)N3CCCC3c3ccccc3F)no2)nc1 (centres unmarked) [Compound 415]
14 | 30.5 µM | O=C(c1cc(-c2ccccc2)on1)N1CCC[C@H]1c1ccccc1 [Compound 386]
15 | 3.27 µM | O=C(c1cc(-c2ccc3c(c2)OCO3)on1)N1CC=C(c2cc(F)ccc2Cl)CC1 [Compound 306, [5-(1,3-benzodioxol-5-yl)isoxazol-3-yl]-[4-(2-chloro-5-fluoro-phenyl)-3,6-dihydro-2H-pyridin-1-yl]methanone]
16 | 4 µM | O=C(Nc1cnn(Cc2ccccc2)c1)c1cc(-c2ccncn2)on1 [Compound 148]
17 | > 45 µM | CC1CN(c2ccccc2)CCN1C(=O)c1cc(-c2ccc3c(c2)OCO3)on1 (centres unmarked) [Compound 270, (5-(benzo[d][1,3]dioxol-5-yl)isoxazol-3-yl)(2-methyl-4-phenylpiperazin-1-yl)methanone]
18 | > 45 µM | COc1ccccc1Cn1cc(NC(=O)c2cc(-c3ccccc3)on2)cn1 [Compound 125, N-(1-(2-methoxybenzyl)-1H-pyrazol-4-yl)-5-phenylisoxazole-3-carboxamide]
19 | 0.01 µM | O=C(Nc1cnn(Cc2cccc(F)c2)c1)c1noc2c1CCCC2 [Compound 193, N-{1-[(3-fluorophenyl)methyl]-1H-pyrazol-4-yl}-4,5,6,7-tetrahydro-1,2-benzoxazole-3-carboxamide]
20 | > 45 µM | O=C(c1cc(-c2ccc3c(c2)OCO3)on1)N1CCCC1c1ccnc(Br)c1F (centres unmarked) [Compound 459]

Row | IC50 | Compound
21 | > 45 µM | O=C(Nc1cnn(Cc2cccc(C(F)(F)F)c2)c1)c1cc(-c2ccco2)on1 [Compound 20, 5-(2-furyl)-N-[1-[[3-(trifluoromethyl)phenyl]methyl]pyrazol-4-yl]isoxazole-3-carboxamide]
22 | 37.1 µM | O=C(c1cc(-c2ccc3c(c2)OCO3)on1)N1CC2(CC(c3ccccc3)C2)C1 [Compound 228]
23 | 4.7 µM | O=C(Nc1cnn(Cc2ccccc2)c1)c1cc(-c2ncccc2F)on1 [Compound 122]
24 | 33 µM | O=C(c1cc(N2CCOCC2)on1)N1CC(c2ccccc2)C1 [Compound 248]
25 | 1.57 µM | O=C(c1cc(-c2ccc3c(c2)OCO3)on1)N1CC(c2ccccc2)C1 [Compound 217, [5-(1,3-benzodioxol-5-yl)isoxazol-3-yl]-(3-phenylazetidin-1-yl)methanone]
26 | > 45 µM | CNC(=O)c1ccc(-c2cc(C(=O)N3CCC(F)(c4ccccc4)CC3)no2)cc1 [Compound 321]
27 | > 45 µM | O=C(Nc1cnn(Cc2cnccc2C(F)(F)F)c1)c1cc(-c2ccccn2)on1 [Compound 197, 5-(pyridin-2-yl)-N-(1-{[4-(trifluoromethyl)pyridin-3-yl]methyl}-1H-pyrazol-4-yl)-1,2-oxazole-3-carboxamide]
28 | > 45 µM | COc1cccc(F)c1C1CCCN1C(=O)c1cc(-c2ccc3c(c2)OCO3)on1 (centres unmarked) [Compound 453]
29 | > 45 µM | O=C(Nc1cnn(Cc2cnccc2C(F)(F)F)c1)c1cc(-c2ccco2)on1 [Compound 198, 5-(furan-2-yl)-N-(1-{[4-(trifluoromethyl)pyridin-3-yl]methyl}-1H-pyrazol-4-yl)-1,2-oxazole-3-carboxamide]
30 | > 45 µM | O=C(c1cc(-c2ccccc2)on1)N1CCC[C@@H]1c1ccccc1 [Compound 385]
31 | > 45 µM | O=C(c1cc(-c2ccc3c(c2)OCO3)on1)N1CCCC1c1cccc(F)c1 (centres unmarked) [Compound 367]
32 | 33.5 µM | O=C(c1cc(-c2ccc3c(c2)OCO3)on1)N1CCC[C@H]1c1ccccc1 [Compound 327]
33 | > 45 µM | COc1ccc(C2CCCN2C(=O)c2cc(-c3cccc(OC)c3)on2)cc1 (centres unmarked) [Compound 375]
34 | > 45 µM | O=C(c1cc(-c2ccc3c(c2)OCO3)on1)N1CCCC1c1ncco1 (centres unmarked) [Compound 423]
35 | 25 µM | CC(C)c1cc(C(=O)Nc2cnn(Cc3cnccc3C(F)(F)F)c2)no1 [Compound 161, 5-isopropyl-N-(1-((4-(trifluoromethyl)pyridin-3-yl)methyl)-1H-pyrazol-4-yl)isoxazole-3-carboxamide]
36 | > 45 µM | O=C(c1cc(-c2ccc3c(c2)OCO3)on1)N1C[C@H](F)C[C@H]1c1ccccc1 [Compound 420]
37 | > 45 µM | COc1ccc(C2CCCN2C(=O)c2cc(-c3ccc4c(c3)OCO4)on2)cc1 (centres unmarked) [Compound 356]
38 | 25 µM | O=C(Nc1cnn(Cc2cnccc2C(F)(F)F)c1)c1noc2c1CCCC2 [Compound 194, N-(1-{[4-(trifluoromethyl)pyridin-3-yl]methyl}-1H-pyrazol-4-yl)-4,5,6,7-tetrahydro-1,2-benzoxazole-3-carboxamide]
39 | 9.4 µM | O=C(Nc1cnn(Cc2ccccc2F)c1)c1cc(-c2ccccc2)on1 [Compound 111]
40 | > 45 µM | O=C(c1cc(-c2ccc3c(c2)OCO3)on1)N1CCC[C@@H]1C(F)(F)F [Compound 372]

Row | Compound | IC50
41 | N-(1-(3-fluorobenzyl)-1H-pyrazol-4-yl)-5-(pyrimidin-4-yl)isoxazole-3-carboxamide [Compound 90] | 1.1 µM
42 | O=C(c1cc(-c2ccc(Cl)cn2)on1)N1CC(c2ccccc2)C1 [Compound 241, (5-(5-chloropyridin-2-yl)isoxazol-3-yl)(3-phenylazetidin-1-yl)methanone] | 3.38 µM
43 | O=C(Nc1cnn(Cc2cccc(F)c2)c1)c1cc(-c2cnco2)on1 [Compound 86, N-(1-(3-fluorobenzyl)-1H-pyrazol-4-yl)-5-(oxazol-5-yl)isoxazole-3-carboxamide] | 0.188 µM
44 | O=C(Nc1cc(-c2ccco2)on1)c1cnn(Cc2ccccc2)c1 [Compound 49, 1-benzyl-N-[5-(2-furyl)isoxazol-3-yl]pyrazole-4-carboxamide] | > 45 µM
45 | 5-acetyl-N-(1-(3-fluorobenzyl)-1H-pyrazol-4-yl)isoxazole-3-carboxamide [Compound 91] | 0.439 µM

biological target: human SCD5 (Homo sapiens (Human), UniProt Q86SK9); assay: Yeast growth assay, strain expressing human SCD5 as the sole desaturase (reduced growth as surrogate for SCD inhibition); assay type: cell-based; conditions: yeast with OLE1 deleted expressing human SCD5 from a plasmid; growth read as OD600 after 40 h at 30° C.; top drug concentration 33.3 μM
Procedure: as §1, §2, §3, §4

human SCD5, sequence (Q86SK9 whole entry): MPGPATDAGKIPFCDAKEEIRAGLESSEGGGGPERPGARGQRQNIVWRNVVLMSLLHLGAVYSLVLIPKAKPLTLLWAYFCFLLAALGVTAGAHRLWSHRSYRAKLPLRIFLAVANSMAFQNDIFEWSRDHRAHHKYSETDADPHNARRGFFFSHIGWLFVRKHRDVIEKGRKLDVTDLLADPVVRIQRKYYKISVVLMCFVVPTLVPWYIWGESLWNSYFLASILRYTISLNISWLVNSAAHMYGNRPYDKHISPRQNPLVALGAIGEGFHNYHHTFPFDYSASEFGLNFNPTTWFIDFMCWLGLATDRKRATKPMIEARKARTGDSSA

Row | IC50 | Compound
46 | > 45 µM | O=C(c1cc(-c2ccccc2)on1)N1CCN(c2ccc(F)cc2)CC1 [Compound 283]
47 | > 45 µM | Cn1nc(Cc2ccc(Cl)c(Cl)c2)cc1NC(=O)c1cc(-c2ccco2)on1 [Compound 27]
48 | > 45 µM | N#Cc1ccc2c(C(=O)N3CCC[C@H]3c3ccccc3)noc2c1 [Compound 456]
49 | > 45 µM | CC(C)c1cc(C(=O)Nc2cc3ccccn3n2)no1 [Compound 176]
50 | > 45 µM | Cc1ncc(-c2cc(C(=O)Nc3cnn(Cc4ccccc4)c3)no2)s1 [Compound 133]
